Experimental data as given in patent publication US11541051B2, “Compositions and methods for treating CDK4/6-mediated cancer” (Icahn School of Medicine at Mount Sinai, priority 2016, dated 2023).
Entries after “also recorded” stand apart in the source; their conditions may differ.

Key:
Format in all cases: cell-based
CDK4/6 [1] = experiment: Characterization of CDK4/6 degraders/disruptors in various breast cancer and melanoma cells (summary, Examples 12 and 13)
Experimental: Specific exemplary abemaciclib-, ribociclib-, and palbociclib-based CDK4/6 degraders/disruptors were characterized in various different breast cancer and melanoma cells (Examples 12 and 13, FIGS. 10-23). […] This efficacy in suppressing CDK4/6 expression and CDK4/6 activity correlated with efficacy in inhibiting cancer cell proliferation.
(§1) Protein concentrations were determined by BCA from cell lysates and equal amounts of protein are loaded to a Bis-Tris 4-12% gel. Gels were run at 80 V for 4 h using 1× running buffer (25 mM Tris, pH 8.3, […] glycine, 0.1% SDS). Proteins were transferred to a nitrocellulose membrane for 2 h at 100 V using transfer buffer (25 mM Tris, pH 8.3, […] glycine, 20% methanol). Ponceau S staining (0.1% Ponceau S, 1% acetic acid) was used to confirm transfer of proteins to the membrane followed by blocking of the membrane for 30 min at room temperature using blocking buffer (5% dry nonfat milk, 0.1% Tween, 0.02% sodium azide in TBS). The blocked membrane is incubated with primary antibodies (1:1000 dilution) in blocking buffer at 4° C. overnight. When primary phosphor-antibodies were used, then the membrane is incubated with 5% BSA instead of milk. The membrane was washed three times, 10 min each, with wash buffer (0.1% Tween in TBS) followed by incubation with secondary HRP conjugated antibody (1:5000 dilution) in 2.5% dry nonfat milk, 0.1% Tween in TBS for 1 h at room temperature. The membrane was washed three times, 10 min each, with wash buffer (0.1% Tween in TBS). Membranes are incubated with ECL for 1 min and proteins are detected after exposure to a blue autoradiographic film.

CDK4/6 [2] = experiment: Western blot of CDK4 and CDK6 in MCF7 breast cancer cells treated with degraders (Example 12, FIG. 10 A); conditions: 1 or 5 μM, 24 h
Experimental: (§2) Breast cancer cell lines (MCF7, T47D, and ZR-75-1) and melanoma cell lines (A375, SK-MEL-2, SK-MEL-30, and WM1382) were cultured in the presence of DMEM or RPMI supplemented with 10% FBS in the presence of penicillin and streptomycin.
as §1
(§3) MCF7 breast cancer cells were treated with 1 or 5 μM XY019-095, XY019-098, XY019-0100, XY019-105A, XY019-105B, XY019-106, or XY019-108 for 24 h, then lysed and immunoblotted with antibodies to CDK4, CDK6, and actin (FIG. 10, panel A). […] T47D breast cancer cells were treated with 0.1, 0.3, 1, 3, 10, or 30 μM XY019-106 for 24 h, then lysed and immunoblotted with antibodies to phospho-Rb (pRB), CDK4, and actin (FIG. 10, panel B).

CDK4/6 [3] = experiment: Western blot of CDK4, CDK6 and phospho-Rb in SK-MEL-2 or A375 melanoma cells treated with degraders (Example 12, FIG. 11); conditions: SK-MEL-2 or A375 cells; 1 or 3 μM; 24 h
Experimental: as §2
as §1, with “The membrane was washed three times, 10 min each, with wash buffer (0.1% Tween in TBS) followed by incubation with secondary HRP conjugated antibody (1:5000 dilution) in 2.5% dry nonfat milk, 0.1% Tween in TBS for 1 h at room temperature. The membrane was washed three times, 10 min each, with wash buffer (0.1% Tween in TBS).” left out, “film. […]” for “film.”

CDK4/6 [4] = experiment: Western blot of CDK4, CDK6 and phospho-Rb in A375 melanoma cells treated with degraders (Example 12, FIGS. 12, 13, 16, 18); conditions: 1 or 3 μM, 24 h
Experimental: as §2, §1
A375 melanoma cells (FIG. 13) were treated with 1 or 3 μM Ribociclib (RB), YX030-126, YX030-108, YX030-107, YX030-086, YX030-085 or XY028-133 for 24 h, then lysed and immunoblotted with antibodies to CDK4, CDK6, cyclin A, PLK1, phospho-Rb (pRb), and actin.
A375 melanoma cells (FIG. 16, panel A) were treated with 0.3 or 1 μM XY028-140, YX039-65, YX039-48, YX039-123, YX039-56, YX039-124 or YX039-147 for 24 h. A375 melanoma cells were treated with 1 or 3 μM XY028-140, YX039-56, YX039-65 or XY028-133 (FIG. 16, panel B). Cells were lysed and immunoblotted with antibodies to phospho-Rb (pRb), total Rb, PLK1, cyclin A, CDK4, CDK6, and actin.
A375 melanoma cells (FIG. 18) were treated with 1 or 3 μM XY028-133, YX044-18, YX044-22, XY028-140, YX044-19 or YX044-38 for 24 h, then lysed and immunoblotted with antibodies to phospho-Rb (pRb), total Rb, PLK1, cyclin A, CDK4, CDK6, and actin.

T47D breast cancer cells = experiment: Crystal violet staining (clonogenic assay) of T47D breast cancer cells (Example 13, FIGS. 22, 23); conditions: 11 days
Experimental: Cells were cultured for 7-11 days in the presence of different compounds. Media with compound was replenished every two days. At the end of the experiment, media was aspirated and viable cells were stained with 0.5% crystal violet dye.

CDK4/6 [5] = experiment: Western blot of CDK4/6 and phospho-Rb in T47D breast cancer cells treated with degraders (Example 12, FIGS. 10 B, 17, 19); conditions: 0.3 or 1 μM, 24 h
Experimental: as §2, §1, §3
T47D breast cancer cells (FIG. 17) were treated with 0.3 or 1 μM XY028-140, YX039-48, YX039-123, YX039-56, YX039-124, YX039-65, YX039-147 or YX039-74 for 24 h, then lysed and immunoblotted with antibodies to phospho-Rb (pRb), total Rb, PLK1, cyclin A, CDK4, CDK6, and actin.
T47D breast cancer cells (FIG. 19) were treated with 0.3 or 1 μM XY028-133, YX044-18, YX044-22, XY028-140, YX044-19 or YX044-38 for 24 h, then lysed and immunoblotted with antibodies to phospho-Rb (pRb), total Rb, PLK1, cyclin A, CDK4, CDK6, and actin.

Row | Structure (SMILES) | suppression of both CDK4/6 expression and CDK4/6 activity (summary) (CDK4/6 [1]) | suppression of CDK4/6 expression (CDK4/6 [2]) | efficacy in inhibiting both CDK4/6 expression and CDK4/6 activity (decreased Rb phosphorylation) (CDK4/6 [3]) | efficacy in inhibiting both CDK4/6 expression and CDK4/6 activity (decreased Rb phosphorylation) (CDK4/6 [4]) | inhibition of cancer cell proliferation compared with palbociclib (crystal violet staining) (T47D breast cancer cells; 0.003, 0.01 or 0.03 μM) | inhibition of cancer cell proliferation compared with palbociclib (crystal violet staining) (T47D breast cancer cells; 0.03, 0.1, 0.3, 1 or 3 μM) | efficacy in inhibiting both CDK4/6 expression and CDK4/6 activity (decreased Rb phosphorylation) (CDK4/6 [5])
1 | CC(=O)c1c(C)c2cnc(Nc3ccc(N4CCN(C(=O)COCCOCCOCC(=O)N[C@H](C(=O)N5C[C@H](O)C[C@H]5C(=O)NCc5ccc(-c6scnc6C)cc5)C(C)(C)C)CC4)cn3)nc2n(C2CCCC2)c1=O [XY019-098, (2S,4R)-1-((S)-14-(4-(6-((6-acetyl-8-cyclopentyl-5-methyl-7-oxo-7,8-dihydropyrido[2,3-d]pyrimidin-2-yl)amino)pyridin-3-yl)piperazin-1-yl)-2-(tert-butyl)-4,14-dioxo-6,9,12-trioxa-3-azatetradecanoyl)-4-hydroxy-N-(4-(4-methylthiazol-5-yl)benzyl)pyrrolidine-2-carboxamide] | especially effective in suppressing both CDK4/6 expression and CDK4/6 activity | especially effective in suppressing CDK4/6 expression even at 1 μM |  |  |  |  | 
2 | CC(=O)c1c(C)c2cnc(Nc3ccc(N4CCN(C(=O)CCOCCOCCOCCNc5cccc6c5C(=O)N(C5CCC(=O)NC5=O)C6=O)CC4)cn3)nc2n(C2CCCC2)c1=O (stereo not drawn) [XY019-108, 4-((2-(2-(2-(3-(4-(6-((6-acetyl-8-cyclopentyl-5-methyl-7-oxo-7,8-dihydropyrido[2,3-d]pyrimidin-2-yl)amino)pyridin-3-yl)piperazin-1-yl)-3-oxopropoxy)ethoxy)ethoxy)ethyl)amino)-2-(2,6-dioxopiperidin-3-yl)isoindoline-1,3-dione] | especially effective in suppressing both CDK4/6 expression and CDK4/6 activity | especially effective in suppressing CDK4/6 expression even at 1 μM |  |  |  |  | 
3 | CC(=O)c1c(C)c2cnc(Nc3ccc(N4CCN(C(=O)CCOCCC(=O)N[C@H](C(=O)N5C[C@H](O)C[C@H]5C(=O)NCc5ccc(-c6scnc6C)cc5)C(C)(C)C)CC4)cn3)nc2n(C2CCCC2)c1=O [XY028-003, (2S,4R)-1-((S)-2-(3-(3-(4-(6-((6-acetyl-8-cyclopentyl-5-methyl-7-oxo-7,8-dihydropyrido[2,3-d]pyrimidin-2-yl)amino)pyridin-3-yl)piperazin-1-yl)-3-oxopropoxy)propanamido)-3,3-dimethylbutanoyl)-4-hydroxy-N-(4-(4-methylthiazol-5-yl)benzyl)pyrrolidine-2-carboxamide] | especially effective in suppressing both CDK4/6 expression and CDK4/6 activity |  | efficacy of CDK4/6 degraders/disruptors, particularly XY019-106 and XY028-003 | efficacy of CDK4/6 degraders, particularly XY028-133, XY028-140, XY019-106 and XY028-003 |  |  | 
4 | CC(=O)c1c(C)c2cnc(Nc3ccc(N4CCN(C(=O)CNc5cccc6c5C(=O)N(C5CCC(=O)NC5=O)C6=O)CC4)cn3)nc2n(C2CCCC2)c1=O (stereo not drawn) [XY028-140, 4-((2-(4-(6-((6-acetyl-8-cyclopentyl-5-methyl-7-oxo-7,8-dihydropyrido[2,3-d]pyrimidin-2-yl)amino)pyridin-3-yl)piperazin-1-yl)-2-oxoethyl)amino)-2-(2,6-dioxopiperidin-3-yl)isoindoline-1,3-dione] | especially effective in suppressing both CDK4/6 expression and CDK4/6 activity |  |  | efficacy of CDK4/6 degraders, particularly XY028-133, XY028-140, XY019-106 and XY028-003 | inhibited cancer cell proliferation more effective that palbociclib at the same concentration | inhibited cancer cell proliferation more effective that palbociclib at the same concentration | efficacy of CDK4/6 degraders, particularly XY028-140 and YX039-123; also recorded: efficacy of CDK4/6 degraders, particularly XY028-140 and YX044-22 and YX044-19
5 | CC(=O)c1c(C)c2cnc(Nc3ccc(N4CCN(C(=O)COc5cccc6c5CN(C5CCC(=O)NC5=O)C6=O)CC4)cn3)nc2n(C2CCCC2)c1=O (stereo not drawn) [YX039-123, 3-(4-(2-(4-(6-((6-acetyl-8-cyclopentyl-5-methyl-7-oxo-7,8-dihydropyrido[2,3-d]pyrimidin-2-yl)amino)pyridin-3-yl)piperazin-1-yl)-2-oxoethoxy)-1-oxoisoindolin-2-yl)piperidine-2,6-dione] | especially effective in suppressing both CDK4/6 expression and CDK4/6 activity |  |  |  | inhibited cancer cell proliferation more effective that palbociclib at the same concentration | inhibited cancer cell proliferation more effective that palbociclib at the same concentration | efficacy of CDK4/6 degraders, particularly XY028-140 and YX039-123
6 | CC(=O)c1c(C)c2cnc(Nc3ccc(N4CCCN(C(=O)CNc5cccc6c5C(=O)N(C5CCC(=O)NC5=O)C6=O)CC4)cn3)nc2n(C2CCCC2)c1=O (stereo not drawn) [YX044-19, 4-((2-(4-(6-((6-acetyl-8-cyclopentyl-5-methyl-7-oxo-7,8-dihydropyrido[2,3-d]pyrimidin-2-yl)amino)pyridin-3-yl)-1,4-diazepan-1-yl)-2-oxoethyl)amino)-2-(2,6-dioxopiperidin-3-yl)isoindoline-1,3-dione] |  |  |  |  |  |  | efficacy of CDK4/6 degraders, particularly XY028-140 and YX044-22 and YX044-19
7 | CC(=O)c1c(C)c2cnc(Nc3ccc(N4CCN(C(=O)CCCCCC(=O)N[C@H](C(=O)N5C[C@H](O)C[C@H]5C(=O)N[C@@H](C)c5ccc(-c6scnc6C)cc5)C(C)(C)C)CC4)cn3)nc2n(C2CCCC2)c1=O [YX044-22, (2S,4R)-1-((S)-2-(7-(4-(6-((6-acetyl-8-cyclopentyl-5-methyl-7-oxo-7,8-dihydropyrido[2,3-d]pyrimidin-2-yl)amino)pyridin-3-yl)piperazin-1-yl)-7-oxoheptanamido)-3,3-dimethylbutanoyl)-4-hydroxy-N-((S)-1-(4-(4-methylthiazol-5-yl)phenyl)ethyl)pyrrolidine-2-carboxamide] |  |  |  |  |  |  | efficacy of CDK4/6 degraders, particularly XY028-140 and YX044-22 and YX044-19
